Patent US7417156B2, “Orally active, antimalarial, anticancer, artemisinin-derived trioxane dimers” (Johns Hopkins University, priority 2002, dated 2008)
Like-named read-outs stand apart in the source and are kept apart here.

Legend:
[1] = tested on: chloroquine-sensitive P. falciparum (NF54); experiment: Antimalarial activity in vitro, [3H]hypoxanthine incorporation; type: cell-based; settings: Plasmodium falciparum, read-out: IC50
EKVX = experiment: NCI 60 cell line panel screen (SRB); type: cell-based, human
MOLT-4 = tested on: MOLT-4
Protocol: Growth Inhibition. […] The screening assay is performed on 96-well microtitre plates. Relatively high initial inoculation densities are used, in order to permit measurement of “time-zero” values and to enhance the screen's ability to detect and provide some differentiation between growth inhibition and cytotoxic response parameters. […] The inoculated microtitre plates are pre-incubated for 24 hours at 37° C. prior to drug additions. The five drug dilutions tested routinely range from 10^−4 to 10^−8 molar. Higher or lower concentration ranges may be selected on a non-routine basis if appropriate solubility and/or prior biological information or other screening data so dictate. Duplicate wells are prepared for all concentrations, (concentration is often denoted by placing brackets around a number); “time-zero” and “no drug” controls are also provided for each test. The minimum amount of compound required for a one-time evaluation in the routine screen can be calculated from the knowledge that each test requires a total of approximately 40 ml (0.04 liter) of cell culture medium containing the highest desired drug concentration. […] After a 48 hour incubation (37° C.) with the test compound, the cells are fixed in situ to the bottoms of the microtitre wells by addition of 50 μl of either 50% trichloroacetic acid (for adherent cell lines) or 80% trichloroacetic acid (for settled cell suspension lines), followed by incubation for 60 minutes at 4° C. The cellular protein in each well is assayed using a sulforhodamine B (SRB) stain procedure. Briefly, after discarding the supernatants, the microtitre plates are washed 5 times with deionized water and air-dried. […] Unbound SRB is removed by washing 5 times with 1% acetic acid. […] SRB is a bright pink anionic dye which, in dilute acetic acid, binds electrostatically to the basic amino acids of TCA-fixed cells. Cryopreserved master stocks of all the lines are maintained, and cultures used for screening are replaced from the master stock after no more than twenty passages in the screening laboratory. The cell line panel consists of 60 lines, organized into nine, disease-related subpanels including leukemia, non-small-cell lung cancer, colon, CNS, melanoma, ovarian, renal, prostate and breast cancers.
At this value the increase from time tzero, in the number or mass of cells in the test well is only 50% as much as the corresponding increase in the control well during this period of the experiment, see Table III. A drug effect of this intensity is interpreted as primary growth inhibition.
At this value the number or mass of cells in the well at the end of the experiment equals the number or mass of cells in the well at time tzero, see Table IV. A drug effect of this intensity is regarded as cytostasis.
At this value, the number or mass of cells in the test well at the end of the experiment is half that at time tzero, see Table V. This is interpreted as cytotoxicity.
Dose response curves, shown in the above mentioned Figures, are obtained by exposing various cancer cell lines to compounds having a known concentration ([log10M]), as discussed in detail above, and then plotting the percentage growth of each cell line for each concentration. […] Percentage growth is determined by dividing the number or mass of cells in the test well by the number or mass of cells in a control well. […] As discussed previously, the five drug dilutions routinely tested range from 10^−4 to […].

OVCAR-8 = experiment: NCI 60 cell line panel screen (SRB); type: cell-based, human
HT29 = experiment: NCI 60 cell line panel screen (SRB); type: cell-based, human
HL-60(TB) = experiment: NCI 60 cell line panel screen (SRB); type: cell-based, human
MDA-MB231/ATCC = experiment: NCI 60 cell line panel screen (SRB); type: cell-based, human
BT-549 = experiment: NCI 60 cell line panel screen (SRB); type: cell-based, human
UACC-257 = experiment: NCI 60 cell line panel screen (SRB); type: cell-based, human
K-562 = experiment: NCI 60 cell line panel screen (SRB); type: cell-based, human
RXF 393 = experiment: NCI 60 cell line panel screen (SRB); type: cell-based, human
MCF7 = experiment: NCI 60 cell line panel screen (SRB); type: cell-based, human
HOP-62 = experiment: NCI 60 cell line panel screen (SRB); type: cell-based, human

C[C@@H]1CC[C@H]2[C@@H](C)C(=O)O[C@@H]3O[C@]4(C)CC[C@@H]1[C@]32OO4 [Artemisinin]
IC50 ([1]; NF54, Table I, NF54 strain): 9.2 ± 1.7 nM | IC50 ([1]; NF54, running text b206, artemisinin): 7.7 nM | Log10LC50 (EKVX; EKVX (Non-Small Cell Lung Cancer), LC50: PG=−50): >−4.00 log10M | Log10TGI50 (EKVX; EKVX (Non-Small Cell Lung Cancer), TGI: PG=0): >−4.00 log10M | Log10GI50 (EKVX; Non-Small Cell Lung Cancer, EKVX): >−4.00 | Log10GI50 (MOLT-4; Leukemia, MOLT-4): −4.73 | Log10LC50 (MOLT-4; MOLT-4 (Leukemia), LC50: PG=−50): >−4.00 log10M | Log10TGI50 (MOLT-4; MOLT-4 (Leukemia), TGI: PG=0): >−4.00 log10M | concentration for cytotoxicity (percentage growth −50) (MOLT-4; human, 48 h): greater than 10^−4 M | Log10LC50 (OVCAR-8; OVCAR-8 (Ovarian Cancer), LC50: PG=−50): >−4.00 log10M | Log10TGI50 (OVCAR-8; OVCAR-8 (Ovarian Cancer), TGI: PG=0): >−4.00 log10M | Log10GI50 (OVCAR-8; Ovarian Cancer, OVCAR-8): >−4.00 | Log10GI50 (HT29; Colon Cancer, HT29): >−4.00 | Log10LC50 (HT29; HT29 (Colon Cancer), LC50: PG=−50): >−4.00 log10M | Log10TGI50 (HT29; HT29 (Colon Cancer), TGI: PG=0): >−4.00 log10M | Log10LC50 (HL-60(TB); HL-60(TB) (Leukemia), LC50: PG=−50): >−4.00 log10M | Log10TGI50 (HL-60(TB); HL-60(TB) (Leukemia), TGI: PG=0): >−4.00 log10M | Log10GI50 (HL-60(TB); Leukemia, HL-60(TB)): −4.26 | Log10GI50 (MDA-MB231/ATCC; Breast Cancer, MDA-MB231/ATCC): −4.20 | Log10LC50 (MDA-MB231/ATCC; MDA-MB231/ATCC (Breast Cancer), LC50: PG=−50): >−4.00 log10M | Log10TGI50 (MDA-MB231/ATCC; MDA-MB231/ATCC (Breast Cancer), TGI: PG=0): >−4.00 log10M | Log10LC50 (BT-549; BT-549 (Breast Cancer), LC50: PG=−50): >−4.00 log10M | Log10TGI50 (BT-549; BT-549 (Breast Cancer), TGI: PG=0): >−4.00 log10M | Log10GI50 (BT-549; Breast Cancer, BT-549): −4.06 | Log10GI50 (UACC-257; Melanoma, UACC-257): >−4.00 | Log10LC50 (UACC-257; UACC-257 (Melanoma), LC50: PG=−50): >−4.00 log10M | Log10TGI50 (UACC-257; UACC-257 (Melanoma), TGI: PG=0): >−4.00 log10M | Log10LC50 (K-562; K-562 (Leukemia), LC50: PG=−50): >−4.00 log10M | Log10TGI50 (K-562; K-562 (Leukemia), TGI: PG=0): >−4.00 log10M | Log10GI50 (K-562; Leukemia, K-562): −4.33 | Log10LC50 (RXF 393; RXF 393 (Renal Cancer), LC50: PG=−50): >−4.00 log10M | Log10TGI50 (RXF 393; RXF 393 (Renal Cancer), TGI: PG=0): >−4.00 log10M | Log10GI50 (RXF 393; Renal Cancer, RXF 393): −4.08 | Log10GI50 (MCF7; Breast Cancer, MCF7): >−4.00 | Log10LC50 (MCF7; MCF7 (Breast Cancer), LC50: PG=−50): >−4.00 log10M | Log10TGI50 (MCF7; MCF7 (Breast Cancer), TGI: PG=0): >−4.00 log10M | Log10LC50 (HOP-62; HOP-62 (Non-Small Cell Lung Cancer), LC50: PG=−50): >−4.00 log10M | Log10TGI50 (HOP-62; HOP-62 (Non-Small Cell Lung Cancer), TGI: PG=0): >−4.00 log10M | Log10GI50 (HOP-62; Non-Small Cell Lung Cancer, HOP-62): >−4.00
